PubChem BioAssay (NCI)
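Grown in 96-well plates, cells were treated for 48 hours with each compound at five concentrations. Insufficient inhibition: endpoint recorded as highest concentration tested. At the TGI there is no net growth.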

Tests used:
Experiment in all cases: inhibition of tumour cell growth, NCI panel, 48 h
SNB-19 CNS = test system: SNB-19 CNS
EKVX NSCLC = test system: EKVX NSCLC
HCT-15 colon = test system: HCT-15 colon
UACC-257 melanoma = test system: UACC-257 melanoma
UO-31 renal = test system: UO-31 renal
A549 NSCLC = test system: A549 NSCLC
BT-549 breast = test system: BT-549 breast
SK-MEL-28 melanoma = test system: SK-MEL-28 melanoma
HCT-116 colon = test system: HCT-116 colon
IGROV1 ovarian = test system: IGROV1 ovarian
ACHN renal = test system: ACHN renal
CCRF-CEM leukemia = test system: CCRF-CEM leukemia
HT29 colon = test system: HT29 colon
DU-145 prostate = test system: DU-145 prostate
SK-MEL-5 melanoma = test system: SK-MEL-5 melanoma
NCI-H522 lung = test system: NCI-H522 lung
786-0 renal = test system: 786-0 renal
MCF7 breast = test system: MCF7 breast
KM12 colon = test system: KM12 colon
RXF 393 renal = test system: RXF 393 renal

Row | Structure (SMILES) | TGI (SNB-19 CNS) | TGI (EKVX NSCLC) | TGI (HCT-15 colon) | TGI (UACC-257 melanoma) | TGI (UO-31 renal) | TGI (A549 NSCLC) | TGI (BT-549 breast) | TGI (SK-MEL-28 melanoma) | TGI (HCT-116 colon) | TGI (IGROV1 ovarian) | TGI (ACHN renal) | TGI (CCRF-CEM leukemia) | TGI (HT29 colon) | TGI (DU-145 prostate) | TGI (SK-MEL-5 melanoma) | TGI (NCI-H522 lung) | TGI (786-0 renal) | TGI (MCF7 breast) | TGI (KM12 colon) | TGI (RXF 393 renal)
1 | CC(C)(C)OC(=O)c1cnc(Cl)cn1 | > 100 µM | 64.3 µM | 27.5 µM | > 100 µM | 18.5 µM | > 100 µM | > 100 µM | > 100 µM | > 100 µM | 44.7 µM | 99.6 µM | 72.7 µM | > 100 µM | > 100 µM | > 100 µM | 2.78 µM | > 100 µM | > 100 µM | > 100 µM | –
2 | Nc1nc(N)c(NC(=O)CCCO)c(=O)[nH]1 | > 100 µM | > 100 µM | > 100 µM | > 100 µM | > 100 µM | > 100 µM | > 100 µM | – | > 100 µM | > 100 µM | > 100 µM | > 100 µM | > 100 µM | > 100 µM | > 100 µM | > 100 µM | > 100 µM | > 100 µM | > 100 µM | > 100 µM
3 | COC1CC(OC2C(C)OC(OC3C(C)OC(OC4C(O)CC(O[C@H]5CC[C@@]6(C)C(=CC[C@]7(O)[C@@H]6C[C@@H](OC(=O)/C=C/c6ccccc6)[C@@]6(C)[C@]7(O)CC[C@@]6(O)C(C)=O)C5)OC4C)CC3OC)CC2OC)OC(C)C1O (some centres not stated) | > 6.25 µM | > 6.25 µM | > 6.25 µM | > 6.25 µM | > 6.25 µM | > 6.25 µM | > 6.25 µM | – | > 6.25 µM | > 6.25 µM | > 6.25 µM | > 6.25 µM | > 6.25 µM | > 6.25 µM | > 6.25 µM | > 6.25 µM | > 6.25 µM | > 6.25 µM | > 6.25 µM | –
4 | Cc1c(C)c2c(c(N)c1C#N)C(=O)N(Nc1ccccc1)C2=O | > 100 µM | > 100 µM | > 100 µM | > 100 µM | > 100 µM | > 100 µM | > 100 µM | > 100 µM | > 100 µM | > 100 µM | > 100 µM | > 100 µM | – | > 100 µM | > 100 µM | > 100 µM | > 100 µM | > 100 µM | > 100 µM | 47.1 µM
5 | COc1cc(C)c2c(=O)c3ccccc3n(C)c2c1 | 98.6 µM | 91.9 µM | > 100 µM | 77 µM | – | > 100 µM | 52.7 µM | 89.3 µM | 34 µM | 89.8 µM | 55.7 µM | 75.4 µM | 29 µM | > 100 µM | – | 5.74 µM | > 100 µM | > 100 µM | > 100 µM | 40.4 µM
6 | CC(C)=NN/C(=N\S(=O)(=O)c1ccc(C)cc1)Nc1ccc(Cl)cc1 | > 100 µM | > 100 µM | > 100 µM | > 100 µM | > 100 µM | > 100 µM | > 100 µM | > 100 µM | > 100 µM | > 100 µM | > 100 µM | > 100 µM | > 100 µM | > 100 µM | > 100 µM | > 100 µM | > 100 µM | > 100 µM | > 100 µM | –
